# Tests used:
# Type in all cases: functional
# [1] = system: Enterobacter cloacae; assay: Antibacterial activity against Enterobacter cloacae 265A; details: Enterobacter cloacae; read-out: MIC
# [2] = system: Staphylococcus aureus; assay: Antibacterial activity against penicillin G susceptible Staphylococcus aureus; details: Staphylococcus aureus; read-out: MIC
# [3] = system: Serratia marcescens; assay: Antibacterial activity against Serratia marcescens SE3; details: Serratia marcescens; read-out: MIC
# [4] = system: Enterococcus faecium; assay: Antibacterial activity against Enterococcus faecium; details: Enterococcus faecium; read-out: MIC
# [5] = system: Escherichia coli; assay: Antibacterial activity against Escherichia coli EC14; details: Escherichia coli; read-out: MIC
# [6] = system: Klebsiella pneumoniae; assay: microbe, parasite or virus in culture; details: Klebsiella pneumoniae; read-out: MIC
# Description: Antibacterial activity against Klebsiella pneumoniae 1082E
# [7] = system: Staphylococcus aureus; assay: Antibacterial activity against penicillin G resistance Staphylococcus aureus; details: Staphylococcus aureus; read-out: MIC
# [8] = system: Enterobacter cloacae; assay: Antibacterial activity against Enterobacter cloacae EB5; details: Enterobacter cloacae; read-out: MIC
# [9] = system: Streptococcus pneumoniae; assay: Antibacterial activity against Streptococcus pneumoniae; details: Streptococcus pneumoniae; read-out: MIC
# [10] = system: Pseudomonas aeruginosa; assay: Antibacterial activity against Pseudomonas aeruginosa PS18; details: Pseudomonas aeruginosa; read-out: MIC
# [11] = system: Klebsiella pneumoniae; assay: Antibacterial activity against Klebsiella pneumoniae X26; details: Klebsiella pneumoniae; read-out: MIC
# [12] = system: Streptococcus pyogenes; assay: Antibacterial activity against Streptococcus pyogenes; details: Streptococcus pyogenes; read-out: MIC
# [13] = system: Pseudomonas aeruginosa; assay: Antibacterial activity against Pseudomonas aeruginosa X528; details: Pseudomonas aeruginosa; read-out: MIC
# [14] = system: Escherichia coli; assay: Antibacterial activity against Escherichia coli TEM; details: Escherichia coli; read-out: MIC
SMILES,MIC [1] [µg/mL],MIC [2] [µg/mL],MIC [3] [µg/mL],MIC [4] [µg/mL],MIC [5] [µg/mL],MIC [6] [µg/mL],MIC [7] [µg/mL],MIC [8] [µg/mL],MIC [9] [µg/mL],MIC [10] [µg/mL],MIC [11] [µg/mL],MIC [12] [µg/mL],MIC [13] [µg/mL],MIC [14] [µg/mL]
CO/N=C(\C(=O)N[C@@H]1C(=O)N2C(C(=O)[O-])=C(C[n+]3ccc4cnccc4c3)CS[C@H]12)c1csc(N)n1,2,1,0.03,32,< 0.008,2,1,0.03,< 0.008,2,< 0.008,< 0.008,2,< 0.008
CO/N=C(\C(=O)N[C@@H]1C(=O)N2C(C(=O)[O-])=C(C[n+]3ccc4sc(N)cc4c3)CS[C@H]12)c1csc(N)n1,8,0.5,0.06,> 128,0.015,2,4,0.06,< 0.008,4,< 0.008,0.015,1,0.03
CO/N=C(\C(=O)N[C@@H]1C(=O)N2C(C(=O)[O-])=C(C[n+]3cc(C)c4ccccc4c3)CS[C@H]12)c1csc(N)n1,2,1,0.25,> 128,0.06,8,2,0.25,< 0.008,16,0.015,< 0.008,4,0.03
CO/N=C(\C(=O)N[C@@H]1C(=O)N2C(C(=O)[O-])=C(C[n+]3ccc4oc(C)nc4c3)CS[C@H]12)c1csc(N)n1,8,1,–,128,–,4,8,–,0.015,8,0.015,0.015,4,–
CO/N=C(\C(=O)N[C@@H]1C(=O)N2C(C(=O)[O-])=C(C[n+]3ccsc3)CS[C@H]12)c1csc(N)n1,32,4,0.25,64,0.125,8,8,0.5,0.125,16,0.125,0.125,32,0.125
CO/N=C(\C(=O)N[C@@H]1C(=O)N2C(C(=O)[O-])=C(C[n+]3ccc4cncnc4c3)CS[C@H]12)c1csc(N)n1,16,4,1,128,0.25,16,32,1,0.03,64,0.125,0.06,32,0.125
CO/N=C(\C(=O)N[C@@H]1C(=O)N2C(C(=O)[O-])=C(C[n+]3ccc4[nH]cnc4c3)CS[C@H]12)c1csc(N)n1,8,2,0.125,–,0.008,8,2,–,0.008,8,0.008,0.008,2,0.008
CO/N=C(\C(=O)N[C@@H]1C(=O)N2C(C(=O)[O-])=C(C[n+]3cccc4ccoc43)CS[C@H]12)c1csc(N)n1,8,2,0.125,> 128,< 0.008,4,16,0.125,< 0.008,16,< 0.008,< 0.008,4,0.06
CO/N=C(\C(=O)N[C@@H]1C(=O)N2C(C(=O)[O-])=C(C[n+]3cccc4c(O)cccc43)CS[C@H]12)c1csc(N)n1,32,2,0.5,128,0.03,8,2,0.5,0.03,8,0.03,0.015,8,0.06
CO/N=C(\C(=O)N[C@@H]1C(=O)N2C(C(=O)[O-])=C(C[n+]3cscc3C)CS[C@H]12)c1csc(N)n1,8,2,0.25,32,0.06,8,4,0.25,0.03,32,0.06,0.03,16,0.06
CO/N=C(\C(=O)N[C@@H]1C(=O)N2C(C(=O)[O-])=C(C[n+]3ccc4nc(C(C)(C)C)sc4c3)CS[C@H]12)c1csc(N)n1,16,1,2,128,–,4,4,1,0.015,128,–,0.015,–,–

# — ChEMBL document CHEMBL1124865, “Synthesis and biological evaluation of a series of parenteral 3'-quaternary ammonium cephalosporins” (J Med Chem, 1990)
